# Data as given in PubChem BioAssay (NCI).
#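 Five compound concentrations were applied to cells in 96-well plates for 48 hours; endpoints were derived by simple linear interpolation of the resulting dose-response curve. GI50 marks 50% less growth. TGI: total growth inhibition.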
# Key:
# Test in all cases: NCI-60 cell line screen, 48 h
# HCT-15 colon = test system: HCT-15 colon
# A549 NSCLC = test system: A549 NSCLC
# K-562 leukemia = test system: K-562 leukemia
# UACC-62 melanoma = test system: UACC-62 melanoma
# HS 578T breast = test system: HS 578T breast
# MDA-MB-231 breast = test system: MDA-MB-231 breast
# OVCAR-5 ovarian = test system: OVCAR-5 ovarian
# RPMI-8226 leukemia = test system: RPMI-8226 leukemia
# M14 melanoma = test system: M14 melanoma
# ACHN renal = test system: ACHN renal
# NCI-H522 lung = test system: NCI-H522 lung
# NCI-H460 lung = test system: NCI-H460 lung
# DU-145 prostate = test system: DU-145 prostate
# HCC-2998 colon = test system: HCC-2998 colon
# NCI-H226 lung = test system: NCI-H226 lung
# HCT-116 colon = test system: HCT-116 colon
# MDA-MB-435 = test system: MDA-MB-435
# MOLT-4 leukemia = test system: MOLT-4 leukemia
# SR leukemia = test system: SR leukemia
# SK-OV-3 ovarian = test system: SK-OV-3 ovarian
# HOP-92 NSCLC = test system: HOP-92 NSCLC
# TK-10 renal = test system: TK-10 renal
# PC-3 prostate = test system: PC-3 prostate
# EKVX NSCLC = test system: EKVX NSCLC
# A498 renal = test system: A498 renal
# SNB-19 CNS = test system: SNB-19 CNS
# SN12C renal = test system: SN12C renal
# MALME-3M melanoma = test system: MALME-3M melanoma
# BT-549 breast = test system: BT-549 breast
# UO-31 renal = test system: UO-31 renal
# NCI-H23 lung = test system: NCI-H23 lung
# NCI/ADR-RES ovarian = test system: NCI/ADR-RES ovarian
# CAKI-1 renal = test system: CAKI-1 renal
# COLO 205 colon = test system: COLO 205 colon
# HOP-62 NSCLC = test system: HOP-62 NSCLC
# SF-295 CNS = test system: SF-295 CNS
# HT29 colon = test system: HT29 colon
# 786-0 renal = test system: 786-0 renal
# SK-MEL-2 melanoma = test system: SK-MEL-2 melanoma
# SNB-75 CNS = test system: SNB-75 CNS
# T-47D breast = test system: T-47D breast
# OVCAR-8 ovarian = test system: OVCAR-8 ovarian
# SK-MEL-28 melanoma = test system: SK-MEL-28 melanoma
# SK-MEL-5 melanoma = test system: SK-MEL-5 melanoma
# OVCAR-4 ovarian = test system: OVCAR-4 ovarian
# U251 CNS = test system: U251 CNS
# OVCAR-3 ovarian = test system: OVCAR-3 ovarian
# IGROV1 ovarian = test system: IGROV1 ovarian
# MCF7 breast = test system: MCF7 breast
# KM12 colon = test system: KM12 colon
# RXF 393 renal = test system: RXF 393 renal
# SF-539 CNS = test system: SF-539 CNS
# SF-268 CNS = test system: SF-268 CNS
# LOX IMVI melanoma = test system: LOX IMVI melanoma
# SW-620 colon = test system: SW-620 colon
# CCRF-CEM leukemia = test system: CCRF-CEM leukemia
# HL-60(TB) leukemia = test system: HL-60(TB) leukemia
# UACC-257 melanoma = test system: UACC-257 melanoma
smiles,measurement,setting,value
C=CCC1(O)c2ccccc2C(=O)c2c(NCCN(CC(=O)OCC)CC(=O)OCC)cccc21 (stereo unspecified),GI50,HCT-15 colon,69.5 µM
same,TGI,HCT-15 colon,> 100 µM
same,GI50,A549 NSCLC,> 100 µM
same,TGI,A549 NSCLC,> 100 µM
same,GI50,K-562 leukemia,30.9 µM
same,TGI,K-562 leukemia,> 100 µM
same,GI50,UACC-62 melanoma,> 100 µM
same,TGI,UACC-62 melanoma,> 100 µM
same,GI50,HS 578T breast,> 100 µM
same,TGI,HS 578T breast,> 100 µM
same,GI50,MDA-MB-231 breast,> 100 µM
same,TGI,MDA-MB-231 breast,> 100 µM
same,GI50,OVCAR-5 ovarian,> 100 µM
same,TGI,OVCAR-5 ovarian,> 100 µM
same,GI50,RPMI-8226 leukemia,98.5 µM
same,TGI,RPMI-8226 leukemia,> 100 µM
same,GI50,M14 melanoma,> 100 µM
same,TGI,M14 melanoma,> 100 µM
same,GI50,ACHN renal,> 100 µM
same,TGI,ACHN renal,> 100 µM
same,GI50,NCI-H522 lung,> 100 µM
same,TGI,NCI-H522 lung,> 100 µM
same,GI50,NCI-H460 lung,> 100 µM
same,TGI,NCI-H460 lung,> 100 µM
same,GI50,DU-145 prostate,> 100 µM
same,TGI,DU-145 prostate,> 100 µM
same,GI50,HCC-2998 colon,> 100 µM
same,TGI,HCC-2998 colon,> 100 µM
same,GI50,NCI-H226 lung,> 100 µM
same,TGI,NCI-H226 lung,> 100 µM
same,GI50,HCT-116 colon,> 100 µM
same,TGI,HCT-116 colon,> 100 µM
same,GI50,MDA-MB-435,> 100 µM
same,TGI,MDA-MB-435,> 100 µM
same,GI50,MOLT-4 leukemia,75.6 µM
same,TGI,MOLT-4 leukemia,> 100 µM
same,GI50,SR leukemia,46.5 µM
same,TGI,SR leukemia,> 100 µM
same,GI50,SK-OV-3 ovarian,> 100 µM
same,TGI,SK-OV-3 ovarian,> 100 µM
same,GI50,HOP-92 NSCLC,> 100 µM
same,TGI,HOP-92 NSCLC,> 100 µM
same,GI50,TK-10 renal,> 100 µM
same,TGI,TK-10 renal,> 100 µM
same,GI50,PC-3 prostate,97.1 µM
same,TGI,PC-3 prostate,> 100 µM
same,GI50,EKVX NSCLC,> 100 µM
same,TGI,EKVX NSCLC,> 100 µM
same,GI50,A498 renal,> 100 µM
same,TGI,A498 renal,> 100 µM
same,GI50,SNB-19 CNS,> 100 µM
same,TGI,SNB-19 CNS,> 100 µM
same,GI50,SN12C renal,57 µM
same,TGI,SN12C renal,> 100 µM
same,GI50,MALME-3M melanoma,> 100 µM
same,TGI,MALME-3M melanoma,> 100 µM
same,GI50,BT-549 breast,> 100 µM
same,TGI,BT-549 breast,> 100 µM
same,GI50,UO-31 renal,> 100 µM
same,TGI,UO-31 renal,> 100 µM
same,GI50,NCI-H23 lung,> 100 µM
same,TGI,NCI-H23 lung,> 100 µM
same,GI50,NCI/ADR-RES ovarian,> 100 µM
same,TGI,NCI/ADR-RES ovarian,> 100 µM
same,GI50,CAKI-1 renal,> 100 µM
same,TGI,CAKI-1 renal,> 100 µM
same,GI50,COLO 205 colon,> 100 µM
same,TGI,COLO 205 colon,> 100 µM
same,GI50,HOP-62 NSCLC,> 100 µM
same,TGI,HOP-62 NSCLC,> 100 µM
same,GI50,SF-295 CNS,> 100 µM
same,TGI,SF-295 CNS,> 100 µM
same,GI50,HT29 colon,> 100 µM
same,TGI,HT29 colon,> 100 µM
same,GI50,786-0 renal,> 100 µM
same,TGI,786-0 renal,> 100 µM
same,GI50,SK-MEL-2 melanoma,> 100 µM
same,TGI,SK-MEL-2 melanoma,> 100 µM
same,GI50,SNB-75 CNS,> 100 µM
same,TGI,SNB-75 CNS,> 100 µM
same,GI50,T-47D breast,80.6 µM
same,TGI,T-47D breast,> 100 µM
same,GI50,OVCAR-8 ovarian,> 100 µM
same,TGI,OVCAR-8 ovarian,> 100 µM
same,GI50,SK-MEL-28 melanoma,> 100 µM
same,TGI,SK-MEL-28 melanoma,> 100 µM
same,GI50,SK-MEL-5 melanoma,> 100 µM
same,TGI,SK-MEL-5 melanoma,> 100 µM
same,GI50,OVCAR-4 ovarian,> 100 µM
same,TGI,OVCAR-4 ovarian,> 100 µM
same,GI50,U251 CNS,> 100 µM
same,TGI,U251 CNS,> 100 µM
same,GI50,OVCAR-3 ovarian,> 100 µM
same,TGI,OVCAR-3 ovarian,> 100 µM
same,GI50,IGROV1 ovarian,> 100 µM
same,TGI,IGROV1 ovarian,> 100 µM
same,GI50,MCF7 breast,> 100 µM
same,TGI,MCF7 breast,> 100 µM
same,GI50,KM12 colon,> 100 µM
same,TGI,KM12 colon,> 100 µM
same,GI50,RXF 393 renal,> 100 µM
same,TGI,RXF 393 renal,> 100 µM
same,GI50,SF-539 CNS,> 100 µM
same,TGI,SF-539 CNS,> 100 µM
same,GI50,SF-268 CNS,> 100 µM
same,TGI,SF-268 CNS,> 100 µM
same,GI50,LOX IMVI melanoma,> 100 µM
same,TGI,LOX IMVI melanoma,> 100 µM
same,GI50,SW-620 colon,> 100 µM
same,TGI,SW-620 colon,> 100 µM
same,GI50,CCRF-CEM leukemia,> 100 µM
same,TGI,CCRF-CEM leukemia,> 100 µM
same,GI50,HL-60(TB) leukemia,71.9 µM
same,TGI,HL-60(TB) leukemia,> 100 µM
same,GI50,UACC-257 melanoma,> 100 µM
same,TGI,UACC-257 melanoma,> 100 µM
